Experimental data from PubChem BioAssay (NCI).
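Dose response: 5 concentrations. Exposure: 48 h. Format: 96-well plates. Endpoint: linear interpolation; highest concentration if not reached. GI50 = concentration required for 50% inhibition of growth. At the TGI there is no net growth.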

Legend:
Test in all cases: DTP human tumour cell line panel, 48 h
NCI-H226 lung = tested on: NCI-H226 lung
HOP-62 NSCLC = tested on: HOP-62 NSCLC
SK-MEL-5 melanoma = tested on: SK-MEL-5 melanoma
BT-549 breast = tested on: BT-549 breast
HCT-116 colon = tested on: HCT-116 colon
SK-MEL-2 melanoma = tested on: SK-MEL-2 melanoma
MOLT-4 leukemia = tested on: MOLT-4 leukemia
HOP-92 NSCLC = tested on: HOP-92 NSCLC
HT29 colon = tested on: HT29 colon
CCRF-CEM leukemia = tested on: CCRF-CEM leukemia

SMILES	GI50 (NCI-H226 lung) [µM]	TGI (NCI-H226 lung) [µM]	GI50 (HOP-62 NSCLC) [µM]	TGI (HOP-62 NSCLC) [µM]	GI50 (SK-MEL-5 melanoma) [µM]	TGI (SK-MEL-5 melanoma) [µM]	GI50 (BT-549 breast) [µM]	TGI (BT-549 breast) [µM]	GI50 (HCT-116 colon) [µM]	TGI (HCT-116 colon) [µM]	GI50 (SK-MEL-2 melanoma) [µM]	TGI (SK-MEL-2 melanoma) [µM]	TGI (MOLT-4 leukemia) [µM]	TGI (HOP-92 NSCLC) [µM]	TGI (HT29 colon) [µM]	GI50 (MOLT-4 leukemia) [µM]	GI50 (HOP-92 NSCLC) [µM]	GI50 (CCRF-CEM leukemia) [µM]	TGI (CCRF-CEM leukemia) [µM]	GI50 (HT29 colon) [µM]
Cc1ccc(C)c(-n2c(-c3ccc(Br)cc3)csc2=NC(=O)c2ccccc2F)c1	> 100	> 100	> 100	> 100	2.62	> 100	> 100	> 100	3.1	> 100	> 100	> 100	–	–	–	–	–	–	–	–
O=C(O)C(Cc1ccccc1-c1ccccc1)C(=O)O	–	> 100	–	–	–	> 100	–	> 100	–	> 100	–	> 100	> 100	> 100	> 100	–	–	–	–	–
COC(=O)/C=C1\SC(=Nc2ccc(C(F)(F)F)cc2)N(CCc2c[nH]c3ccccc23)C1=O	1.87	3.62	–	–	1.69	3.06	1.53	3.16	1.21	2.47	1.65	3.43	5.51	3.24	4.56	1.22	1.58	1.95	7.22	1.86
COc1cc(/C=C2\CC(C)CC3C2=NN(c2ccccc2)C3c2cc(OC)c(OC)c(OC)c2)cc(OC)c1OC (stereo not given)	37.4	> 100	–	–	11.8	24.2	10.1	39.9	6.21	33.1	15.6	93	> 100	37.1	39.9	13	13.6	7.75	> 100	11.1
CCNCCNc1cc(-c2ccc(Cl)cc2)c(C#N)c2nc3ccccc3n12	1.79	4.31	2.37	5.4	1.7	3.11	1.75	3.34	1.27	2.59	2.06	3.89	–	3.2	3.47	–	1.7	0.49	2.41	1.79
COc1cc(-c2cc(C(=O)Nc3nc4ccccc4s3)nc3cc(-c4ccccc4)nn23)cc(OC)c1OC	27.5	> 100	9.87	27.2	13.8	> 100	6.33	47	4.51	> 100	11.2	27.7	> 100	5.24	–	> 100	0.775	54.1	> 100	–
COc1ccc(-c2nc3sccn3c2/C=C/C(=O)c2cc(OC)c(OC)c(OC)c2)cc1OC	2.16	9.84	2.58	6.68	1.54	2.99	2.43	7.95	2.31	6.44	1.87	4.65	6.47	–	9.88	2.07	–	2.64	> 100	3.48
